pEC50: −log10 of the molar value.
The compounds below were run on HCV genotype 1b replicon (assay: HCV replicon assay (HCV 1b_Huh-Luc/Neo-ET cell line, luciferase readout)). Details: Hepatitis C virus; bicistronic genotype 1b replicon in Huh 7 cells, 72 h incubation, luciferase enzyme activity; read-out: Inhibition of HCV genotype 1b.
Assay type: cell-based
Protocol: Biological activity of the compounds of the invention was determined using an HCV replicon assay. The HCV 1b_Huh-Luc/Neo-ET cell line persistently expressing a bicistronic genotype 1b replicon in Huh 7 cells was obtained from ReBLikon GMBH. This cell line was used to test compound inhibition using luciferase enzyme activity readout as a measurement of compound inhibition of replicon levels.
On Day 1 (the day after plating cells), each compound is added in triplicate to the cells. Plates are incubated for 72 h prior to determining luciferase levels. Enzyme activity was measured using a Bright-Glo Kit (cat. number E2620) manufactured by Promega Corporation. The following equation was used to generate a percent control value for each compound.
% Control=(Average Compound Value/Average Control)*100
The EC50 value was determined using GraphPad Prism and the following equation:
Y=Bottom+(Top−Bottom)/(1+10̂((LogIC50−X)*HillSlope))
EC50 values of compounds are determined several times in the replicon assay. […]
With O=C(N[C@@H](C(=O)N1CCC[C@H]1COc1ccc(-c2ccc(-c3cnc([C@@H]4CCCN4C(=O)[C@H](NC(=O)N4CCOCC4)c4ccccc4)[nH]3)cc2)cc1)c1ccccc1)N1CCOCC1 [Compound 32] the pEC50 was greater than 9.00.
Work on C[C@@H](NC(=O)C1CC1)C(=O)N1CCOC[C@H]1C(=O)Nc1ccc(-c2ccc(-c3cnc([C@@H]4CCCN4C(=O)[C@@H](C)NC(=O)C4CC4)[nH]3)cc2)cc1 [Compound 22] yielded a pEC50 of 8.00 to 9.00.
Work on COC(=O)N[C@H](C(=O)N1CCC[C@H]1C(=O)N[C@@H](C)c1ccc(-c2ccc(-c3cnc([C@@H]4CCCN4C(=O)[C@@H](NC(=O)OC)C(C)C)[nH]3)cc2)cc1)C(C)C [Compound 95] yielded a pEC50 greater than 9.00.
COC(=O)N[C@@H](C(=O)N1CCC[C@H]1CNC(=O)c1ccc(-c2ccc(-c3cnc([C@@H]4CCCN4C(=O)[C@H](NC(=O)N4CCN(C)CC4)c4ccccc4)[nH]3)cc2)cc1)c1ccccc1 [Compound 68] showed a pEC50 greater than 9.00.
In the case of CC(C)(C)OC(=O)N[C@@H](C(=O)N1CCC[C@H]1c1ncc(-c2ccc(Oc3ccc(-c4cnc([C@@H]5CCCN5C(=O)[C@H](NC(=O)OC(C)(C)C)c5ccccc5)[nH]4)cc3)cc2)[nH]1)c1ccccc1 [Compound 52], the pEC50 was greater than 9.00.
Compound CC(C)(C)OC(=O)N[C@@H](C(=O)N1CCC[C@H]1C(=O)Nc1ccc(-c2ccc(-c3cnc([C@@H]4CCCN4C(=O)[C@H](NC(=O)OC(C)(C)C)c4ccccc4)[nH]3)cc2)cc1)c1ccccc1 [Compound 26] has a pEC50 greater than 9.00.
COC(=O)N[C@H](C(=O)N1CCC[C@H]1C(=O)NCc1ccc(-c2ccc(-c3cnc([C@@H]4CCCN4C(=O)[C@@H](NC(=O)OC)C(C)C)[nH]3)cc2)cn1)C(C)C [Compound 119] showed a pEC50 of 6.00 to 8.00.
With COC(=O)N[C@@H](C)C(=O)N1CCC[C@H]1CNC(=O)c1ccc(-c2ccc(-c3cnc([C@@H]4CCCN4C(=O)[C@H](C)NC(=O)OC)[nH]3)cc2)cc1 [Compound 98] the pEC50 was 8.00 to 9.00.
CN1CCN(C(=O)N[C@@H](C(=O)N2CCC[C@H]2C(=O)NCc2ccc(-c3ccc(-c4cnc([C@@H]5CCCN5C(=O)[C@H](NC(=O)N5CCN(C)CC5)c5ccccc5)[nH]4)cc3)cc2)c2ccccc2)CC1 [Compound 45] gave a pEC50 of 8.00 to 9.00.
O=C(NCc1ccc(-c2ccc(-c3cnc([C@@H]4CCCN4C(=O)[C@H](NC(=O)N4CCOCC4)c4ccccc4)[nH]3)cc2)cc1)[C@@H]1CCCN1C(=O)[C@H](NC(=O)N1CCOCC1)c1ccccc1 [Compound 44] was tested, and the pEC50 was 8.00 to 9.00.
In the case of C=CC[C@H](NC(=O)OC)C(=O)N1CCC[C@H]1C(=O)NCc1ccc(-c2ccc(-c3cnc([C@@H]4CCCN4C(=O)[C@H](CC=C)NC(=O)OC)[nH]3)cc2)cc1 [Compound 80], the pEC50 was 8.00 to 9.00.
Work on COC(=O)N[C@H](C(=O)N1CCC[C@H]1C(=O)NCc1ccc(-c2ccc(-c3cnc([C@@H]4CCCN4C(=O)[C@@H](NC(=O)OC)C4CCOCC4)[nH]3)cc2)cc1)C1CCOCC1 [Compound 107] yielded a pEC50 of 6.00 to 8.00.
Compound COC(=O)N[C@@H](C(=O)N1CCC[C@H]1c1ncc(-c2ccc(-c3ccc(C(=O)NC[C@@H]4CCCN4C(=O)[C@@H](c4ccccc4)N(C)C)cc3)cc2)[nH]1)c1ccccc1 [Compound 65] has a pEC50 greater than 9.00.
With COC(=O)N[C@@H](C(=O)N[C@@H](C)c1ncc(-c2ccc(-c3ccc(C(=O)NC[C@@H]4CCCN4C(=O)[C@H](NC(=O)OC)c4ccccc4)cc3)cc2)[nH]1)c1ccccc1 [Compound 89] the pEC50 was greater than 9.00.
Work on [2H]C([2H])([2H])C([2H])(C([2H])([2H])[2H])C([2H])(NC(=O)OC)C(=O)N1CCC[C@H]1c1ncc(-c2ccc(-c3ccc(NC(=O)[C@@H]4CCCN4C(=O)[C@@]([2H])(NC(=O)OC)C([2H])(C([2H])([2H])[2H])C([2H])([2H])[2H])cc3)cc2)[nH]1 (some centres unmarked) [Compound 77] yielded a pEC50 greater than 9.00.
Work on C[C@@H](NC(=O)C1CC1)C(=O)N1CCC[C@H]1C(=O)Nc1ccc(-c2ccc(-c3cnc([C@@H]4CCCN4C(=O)[C@@H](C)NC(=O)C4CC4)[nH]3)cc2)cc1 [Compound 28] yielded a pEC50 of 8.00 to 9.00.
With COC(=O)N[C@H](C(=O)N1CCC[C@H]1C(=O)N[C@H](C)c1ccc(-c2ccc(-c3cnc([C@@H]4CCCN4C(=O)[C@@H](NC(=O)OC)[C@@H](C)OC)[nH]3)cc2)cc1)[C@@H](C)OC [Compound 102] the pEC50 was 6.00 to 8.00.
In the case of COC(=O)N[C@H](C(=O)N1CCC[C@H]1CNC(=O)c1ccc(-c2ccc3nc([C@@H]4CCCN4C(=O)[C@@H](NC(=O)OC)C(C)C)[nH]c3c2)cn1)C(C)C [Compound 115], the pEC50 was 6.00 to 8.00.
Work on C[C@H](NC(=O)[C@@H]1CCCN1C(=O)[C@H](NC(=O)N1CCN(C)CC1)c1ccccc1)c1ccc(-c2ccc(-c3cnc([C@@H]4CCCN4C(=O)[C@H](NC(=O)N4CCN(C)CC4)c4ccccc4)[nH]3)cc2)cc1 [Compound 36] yielded a pEC50 of 8.00 to 9.00.
In the case of COC(=O)N[C@H](C(=O)N1CCC[C@H]1C(=O)NCc1ccc(-c2ccc(-c3cnc([C@@H]4CCCN4C(=O)[C@@H](NC(=O)OC)[C@@H](C)OC)[nH]3)cc2)cc1)[C@@H](C)OC [Compound 106], the pEC50 was 6.00 to 8.00.
Compound COC(=O)N[C@@H](C(=O)N[C@@H](C)c1ncc(-c2ccc(-c3ccc(C(=O)NC[C@@H]4CCCN4C(=O)[C@H](NC(=O)OC)c4ccccc4)nc3)cc2)[nH]1)c1ccccc1 [Compound 93] has a pEC50 greater than 9.00.
With CC(C)(C)OC(=O)N1CCOCC1C(=O)Nc1ccc(-c2ccc(-c3cnc([C@@H]4CCCN4C(=O)OC(C)(C)C)[nH]3)cc2)cc1 (some centres unmarked) [Compound 6] the pEC50 was 6.00 to 8.00.
In the case of COC(=O)N[C@H](C(=O)N1CCC[C@H]1C(=O)NCc1ccc(-c2ccc(-c3cnc([C@@H]4CCCN4C(=O)[C@@H](NC(=O)OC)C(C)C)[nH]3)cn2)cc1)C(C)C [Compound 116], the pEC50 was 6.00 to 8.00.
Work on COC(=O)N[C@H](C(=O)N1CCC[C@H]1CNC(=O)c1ccc(-c2ccc3c(ccc4nc([C@@H]5CCCN5C(=O)[C@@H](NC(=O)OC)C(C)C)[nH]c43)c2)cc1)C(C)C [Compound 113] yielded a pEC50 greater than 9.00.
In the case of O=C(N[C@@H](C(=O)N1CCOC[C@H]1C(=O)Nc1ccc(-c2ccc(-c3cnc([C@@H]4COCCN4C(=O)[C@H](NC(=O)C4CC4)c4ccccc4)[nH]3)cc2)cc1)c1ccccc1)C1CC1 [Compound 1], the pEC50 was greater than 9.00.
C[C@@H](NC(=O)C1CC1)C(=O)N1CCC[C@H]1C(=O)Nc1ccc(-c2ccc(-c3cnc([C@@H]4COCCN4C(=O)[C@@H](C)NC(=O)C4CC4)[nH]3)cc2)cc1 [Compound 19] gave a pEC50 of 8.00 to 9.00.
With O=C(N[C@@H](C(=O)N1CCC[C@H]1c1ncc(-c2ccc(Sc3ccc(-c4cnc([C@@H]5CCCN5C(=O)[C@H](NC(=O)C5CC5)c5ccccc5)[nH]4)cc3)cc2)[nH]1)c1ccccc1)C1CC1 [Compound 50] the pEC50 was greater than 9.00.
For C#CC[C@H](NC(=O)OC)C(=O)N1CCC[C@H]1C(=O)Nc1ccc(-c2ccc(-c3cnc([C@@H]4CCCN4C(=O)[C@H](CC#C)NC(=O)OC)[nH]3)cc2)cc1 [Compound 76], the pEC50 was 8.00 to 9.00.
With COC(=O)N[C@H](C(=O)N1CCC[C@H]1c1ncc(-c2ccc(Sc3cccc(-c4cnc([C@@H]5CCCN5C(=O)[C@@H](NC(=O)OC)C(C)C)[nH]4)c3)cc2)[nH]1)C(C)C [Compound 69] the pEC50 was greater than 9.00.
Work on CC(C)(C)OC(=O)N[C@@H](C(=O)N1CCC[C@H]1c1ncc(-c2ccc(Sc3ccc(-c4cnc([C@@H]5CCCN5C(=O)[C@H](NC(=O)OC(C)(C)C)c5ccccc5)[nH]4)cc3)cc2)[nH]1)c1ccccc1 [Compound 46] yielded a pEC50 greater than 9.00.
COC(=O)N[C@H](C(=O)N1CCC[C@H]1C(=O)Nc1ccc(-c2ccc3nc([C@@H]4CCCN4C(=O)[C@@H](NC(=O)OC)C(C)C)[nH]c3c2)cc1)C(C)C [Compound 73] showed a pEC50 of 8.00 to 9.00.
With CC(C)[C@@H](NC(=O)C1CC1)C(=O)N1CCC[C@H]1c1ncc(-c2ccc(Oc3ccc(-c4cnc([C@@H]5CCCN5C(=O)[C@H](NC(=O)C5CC5)C(C)C)[nH]4)cc3)cc2)[nH]1 [Compound 53] the pEC50 was 8.00 to 9.00.
For COC(=O)N[C@H](C(=O)N[C@@H](C)c1ncc(-c2ccc(-c3ccc(C(=O)NC[C@@H]4CCCN4C(=O)[C@@H](NC(=O)OC)C(C)C)cc3)cc2)[nH]1)C(C)C [Compound 88], the pEC50 was greater than 9.00.
Work on COC(=O)N[C@H](C(=O)N1CCC[C@H]1C(=O)NCc1ccc(-c2ccc3nc([C@@H]4CCCN4C(=O)[C@@H](NC(=O)OC)C(C)C)[nH]c3c2)cc1)C(C)C [Compound 87] yielded a pEC50 of 8.00 to 9.00.
With COC(=O)N[C@@H](C(=O)N1CCC[C@H]1c1ncc(-c2ccc(-c3ccc(C(=O)NC[C@@H]4CCCN4C(=O)[C@H](NC(=O)N4CCN(C)CC4)c4ccccc4)cc3)cc2)[nH]1)c1ccccc1 [Compound 66] the pEC50 was greater than 9.00.
For O=C(N[C@@H](C(=O)N1CCC[C@H]1C(=O)Nc1ccc(-c2ccc(-c3cnc([C@@H]4CCCN4C(=O)[C@H](NC(=O)C4CC4)c4ccccc4)[nH]3)cc2)cc1)c1ccccc1)C1CC1 [Compound 27], the pEC50 was greater than 9.00.
Work on COC(=O)N[C@H](C(=O)N1CCC[C@H]1C(=O)NCc1ccc(-c2ccc3nc([C@@H]4CCCN4C(=O)[C@@H](NC(=O)OC)C(C)C)[nH]c3c2)cn1)C(C)C [Compound 121] yielded a pEC50 of 6.00 to 8.00.
Compound CC(C)[C@@H](NC(=O)OC(C)(C)C)C(=O)N1CCOC[C@H]1C(=O)Nc1ccc(-c2ccc(-c3cnc([C@@H]4CCCN4C(=O)[C@H](NC(=O)OC(C)(C)C)C(C)C)[nH]3)cc2)cc1 [Compound 13] has a pEC50 of 6.00 to 8.00.
Work on C[C@@H](NC(=O)OC(C)(C)C)C(=O)N1CCC[C@H]1C(=O)Nc1ccc(-c2ccc(-c3cnc([C@@H]4COCCN4C(=O)[C@@H](C)NC(=O)OC(C)(C)C)[nH]3)cc2)cc1 [Compound 9] yielded a pEC50 of 6.00 to 8.00.
Work on C[C@@H](NC(=O)OC(C)(C)C)C(=O)N1CCOC[C@H]1C(=O)Nc1ccc(-c2ccc(-c3cnc([C@@H]4COCCN4C(=O)[C@@H](C)NC(=O)OC(C)(C)C)[nH]3)cc2)cc1 [Compound 17] yielded a pEC50 of 6.00 to 8.00.
For COC(=O)N[C@H](C(=O)N1CCC[C@H]1C(=O)Nc1ccc(-c2ccc(-c3cnc([C@@H]4CCCN4C(=O)[C@@H](NC(=O)OC)C(C)C)[nH]3)cn2)cc1)C(C)C [Compound 71], the pEC50 was 8.00 to 9.00.
